# Results reported in patent US10696693B2, “Fused imidazole derivatives as TGF-beta inhibitors” (Rigel Pharmaceuticals, Inc., priority 2014, dated 2020).
# pIC50: −log10 of the molar value. Read-outs that look alike come from different tables or passages of the source.
# Assays:
# GDF8 = assay: AlphaScreen SureFire p-SMAD3 (Ser423/425) assay, GDF8-stimulated cells; format: cell-based; settings: Mus musculus
# How it was run: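 Lysate (5 μL) went into 384-well shallow plates with 5 μL of Reaction Buffer, Activation Buffer and AlphaScreen Acceptor bead mix. Plates were sealed, kept dark and shaken for 2 hours at room temperature. Donor beads in dilution buffer (2 μL) were added for another 1½ hours, and p-SMAD3 signal was read on a Synergy-4 or Enspire reader.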
# TGF-β = assay: AlphaScreen SureFire p-SMAD3 (Ser423/425) assay, TGF-β-stimulated cells; format: cell-based; settings: Mus musculus
# How it was run: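 The p-SMAD-3 (Ser423/425) SureFire assay measured phosphorylation of endogenous SMAD-3 in cell lysates. Cells were plated overnight in collagen-coated plates, exposed to three-fold serially diluted compounds for about 10 minutes, then stimulated with TGFβ. Lysates (5 μL) received acceptor bead mix for 2 hours, then donor beads for 1½ hours before AlphaScreen reading.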
# [1] = MPC-11, p-SMAD3 (Ser423/425) AlphaScreen in cell lysate, MPC11, GDF8 stimulation, read-out: GDF8: inhibition of GDF8 signaling, GDF pSMAD (MPC11)
# [2] = p-SMAD3 (Ser423/425) AlphaScreen in cell lysate, MPC-11, TGF-β stimulation, read-out: TGF-β: inhibition of TGF-β signaling, TGF-β pSMAD (MPC-11)
# [3] = MPC-11, read-out: GDF8: inhibition of GDF8 signaling, GDF pSMAD (MPC11), p-SMAD3 (Ser423/425) AlphaScreen in cell lysate, GDF8 stimulation
# [4] = MPC-11, read-out: TGF-β: inhibition of TGF-β signaling, TGF-β pSMAD (MPC-11), p-SMAD3 (Ser423/425) AlphaScreen in cell lysate, TGF-β stimulation
Structure (SMILES),pIC50 (GDF8; [1]),pIC50 (TGF-β; [2]),pIC50 (GDF8; [3]),pIC50 (TGF-β; [4])
"Fc1cc(-c2nc3n(c2-c2ccc4nccnc4c2)CCC3)cc(F)c1F [Compound 227, 6-(2-(3,4,5-trifluorophenyl)-6,7-dihydro-5H-pyrrolo[1,2-a]imidazol-3-yl)quinoxaline]",6.00 to 7.00,< 6.00,,
"Fc1cc(-c2nc3n(c2-c2ccc4[nH]ncc4c2)CCC3)cc(F)c1F [Compound 228, 5-(2-(3,4,5-trifluorophenyl)-6,7-dihydro-5H-pyrrolo[1,2-a]imidazol-3-yl)-1H-indazole]",,,6.00 to 7.00,6.00 to 7.00
"Fc1cc(-c2nc3n(c2-c2ccc4ncsc4c2)CCC3)cc(F)c1F [Compound 229, 6-(2-(3,4,5-trifluorophenyl)-6,7-dihydro-5H-pyrrolo[1,2-a]imidazol-3-yl)benzo[d]thiazole]",,,6.00 to 7.00,< 6.00
"Fc1cc(F)cc(-c2nc3n(c2-c2ccc4[nH]ncc4c2)CCC3)c1 [Compound 230, 5-(2-(3,5-difluorophenyl)-6,7-dihydro-5H-pyrrolo[1,2-a]imidazol-3-yl)-1H-indazole]",,,6.00 to 7.00,< 6.00
"Fc1cc(F)cc(-c2nc3n(c2-c2ccc4cn[nH]c4c2)CCC3)c1 [Compound 231, 6-(2-(3,5-difluorophenyl)-6,7-dihydro-5H-pyrrolo[1,2-a]imidazol-3-yl)-1H-indazole]",,,6.00 to 7.00,< 6.00
"Fc1cc(F)cc(-c2nc3n(c2-c2ccc4ncsc4c2)CCC3)c1 [Compound 232, 6-(2-(3,5-difluorophenyl)-6,7-dihydro-5H-pyrrolo[1,2-a]imidazol-3-yl)benzo[d]thiazole]",,,6.00 to 7.00,< 6.00
"Fc1cc(F)cc(-c2nc3n(c2-c2ccc4nccnc4c2)CCC3)c1 [Compound 233, 6-(2-(3,5-difluorophenyl)-6,7-dihydro-5H-pyrrolo[1,2-a]imidazol-3-yl)quinoxaline]",,,< 6.00,< 6.00
"Fc1cc(F)cc(-c2nc3n(c2-c2ccc4ncccc4c2)CCC3)c1 [Compound 234, 6-(2-(3,5-difluorophenyl)-6,7-dihydro-5H-pyrrolo[1,2-a]imidazol-3-yl)quinoline]",,,< 6.00,< 6.00
"Fc1cc(F)c(F)c(-c2nc3n(c2-c2ccc4ncsc4c2)CCC3)c1 [Compound 235, 6-(2-(2,3,5-trifluorophenyl)-6,7-dihydro-5H-pyrrolo[1,2-a]imidazol-3-yl)benzo[d]thiazole]",,,6.00 to 7.00,6.00 to 7.00
"Fc1cc(F)c(F)c(-c2nc3n(c2-c2ccc4[nH]ncc4c2)CCC3)c1 [Compound 236, 5-(2-(2,3,5-trifluorophenyl)-6,7-dihydro-5H-pyrrolo[1,2-a]imidazol-3-yl)-1H-indazole]",,,6.00 to 7.00,< 6.00
"Fc1cc(F)c(F)c(-c2nc3n(c2-c2ccc4ncccc4c2)CCC3)c1 [Compound 237, 6-(2-(2,3,5-trifluorophenyl)-6,7-dihydro-5H-pyrrolo[1,2-a]imidazol-3-yl)quinoline]",6.00 to 7.00,< 6.00,,
"Fc1cc(F)c(F)c(-c2nc3n(c2-c2ccc4nccnc4c2)CCC3)c1 [Compound 238, 6-(2-(2,3,5-trifluorophenyl)-6,7-dihydro-5H-pyrrolo[1,2-a]imidazol-3-yl)quinoxaline]",6.00 to 7.00,6.00 to 7.00,,
"Fc1cc(-c2nc3n(c2-c2ccc4[nH]ncc4c2)CCC3)c(F)cc1Cl [Compound 239, 5-(2-(4-chloro-2,5-difluorophenyl)-6,7-dihydro-5H-pyrrolo[1,2-a]imidazol-3-yl)-1H-indazole]",< 6.00,< 6.00,,
"Fc1cc(-c2nc3n(c2-c2ccc4nccnc4c2)CCC3)c(F)cc1Cl [Compound 241, 6-(2-(4-chloro-2,5-difluorophenyl)-6,7-dihydro-5H-pyrrolo[1,2-a]imidazol-3-yl)quinoxaline]",< 6.00,< 6.00,,
"Fc1cc(-c2nc3n(c2-c2ccc4ncccc4c2)CCC3)c(F)cc1Cl [Compound 242, 6-(2-(4-chloro-2,5-difluorophenyl)-6,7-dihydro-5H-pyrrolo[1,2-a]imidazol-3-yl)quinoline]",< 6.00,< 6.00,,
"Fc1cc(-c2nc3n(c2-c2ccc4ncccc4c2)CCC3)cc(F)c1F [Compound 247, 6-(2-(3,4,5-trifluorophenyl)-6,7-dihydro-5H-pyrrolo[1,2-a]imidazol-3-yl)quinoline]",6.00 to 7.00,< 6.00,,
"Cc1ccc(-c2nc3n(c2-c2ccc4[nH]ncc4c2)CCC3)c(F)c1F [Compound 248, 5-(2-(2,3-difluoro-4-methylphenyl)-6,7-dihydro-5H-pyrrolo[1,2-a]imidazol-3-yl)-1H-indazole]",< 6.00,< 6.00,,
"Cc1ccc(-c2nc3n(c2-c2ccc4nccnc4c2)CCC3)c(F)c1F [Compound 250, 6-(2-(2,3-difluoro-4-methylphenyl)-6,7-dihydro-5H-pyrrolo[1,2-a]imidazol-3-yl)quinoxaline]",< 6.00,< 6.00,,
"Cc1ccc(-c2nc3n(c2-c2ccc4ncccc4c2)CCC3)c(F)c1F [Compound 251, 6-(2-(2,3-difluoro-4-methylphenyl)-6,7-dihydro-5H-pyrrolo[1,2-a]imidazol-3-yl)quinoline]",< 6.00,< 6.00,,

# Second part, led by results:
pIC50 (GDF8; [1]),pIC50 (TGF-β; [2]),Structure (SMILES),pIC50 (GDF8; [3]),pIC50 (TGF-β; [4])
6.00 to 7.00,< 6.00,"Fc1cc(-c2nc3n(c2-c2ccc4ncsc4c2)CCC3)c(F)cc1Cl [Compound 240, 6-(2-(4-chloro-2,5-difluorophenyl)-6,7-dihydro-5H-pyrrolo[1,2-a]imidazol-3-yl)benzo[d]thiazole]",,
< 6.00,< 6.00,"Cc1cc(-c2nc3n(c2-c2ccc4[nH]ncc4c2)CCC3)cc(C)c1Cl [Compound 243, 5-(2-(4-chloro-3,5-dimethylphenyl)-6,7-dihydro-5H-pyrrolo[1,2-a]imidazol-3-yl)-1H-indazole]",,
< 6.00,< 6.00,"Cc1cc(-c2nc3n(c2-c2ccc4ncsc4c2)CCC3)cc(C)c1Cl [Compound 244, 6-(2-(4-chloro-3,5-dimethylphenyl)-6,7-dihydro-5H-pyrrolo[1,2-a]imidazol-3-yl)benzo[d]thiazole]",,
< 6.00,< 6.00,"Cc1cc(-c2nc3n(c2-c2ccc4nccnc4c2)CCC3)cc(C)c1Cl [Compound 245, 6-(2-(4-chloro-3,5-dimethylphenyl)-6,7-dihydro-5H-pyrrolo[1,2-a]imidazol-3-yl)quinoxaline]",,
< 6.00,< 6.00,"Cc1cc(-c2nc3n(c2-c2ccc4ncccc4c2)CCC3)cc(C)c1Cl [Compound 246, 6-(2-(4-chloro-3,5-dimethylphenyl)-6,7-dihydro-5H-pyrrolo[1,2-a]imidazol-3-yl)quinoline]",,
< 6.00,< 6.00,"Cc1ccc(-c2nc3n(c2-c2ccc4ncsc4c2)CCC3)c(F)c1F [Compound 249, 6-(2-(2,3-difluoro-4-methylphenyl)-6,7-dihydro-5H-pyrrolo[1,2-a]imidazol-3-yl)benzo[d]thiazole]",,
< 6.00,< 6.00,"Cc1cc(-c2nc3n(c2-c2ccc4cn[nH]c4c2)CCC3)c(F)cc1Cl [Compound 252, 6-(2-(4-chloro-2-fluoro-5-methylphenyl)-6,7-dihydro-5H-pyrrolo[1,2-a]imidazol-3-yl)-1H-indazole]",,
< 6.00,< 6.00,"Cc1cc(-c2nc3n(c2-c2ccc4ncsc4c2)CCC3)c(F)cc1Cl [Compound 253, 6-(2-(4-chloro-2-fluoro-5-methylpheny)-6,7-dihydro-5H-pyrrolo[1,2-a]imidazol-3-yl)benzo[d]thiazole]",,
